Experimental data published in patent publication US20110130380A1, “Heteroaryl Kinase Inhibitors” (priority 2009, published 2011).

These compounds were tested against Cdk9/cyclinT1 (Homo sapiens, UniProt P50750) (assay: Cdk9/cyclinT1 IMAP Protocol (fluorescence polarization kinase assay)). Conditions: Cdk9_cyclinT1_IC50, Table V; generated using one of the two Cdk9/cyclinT1 assays (IMAP or Alpha Screen), not stated which; ATP 6 uM.
Chain of Cdk9/cyclinT1 (P50750 whole entry): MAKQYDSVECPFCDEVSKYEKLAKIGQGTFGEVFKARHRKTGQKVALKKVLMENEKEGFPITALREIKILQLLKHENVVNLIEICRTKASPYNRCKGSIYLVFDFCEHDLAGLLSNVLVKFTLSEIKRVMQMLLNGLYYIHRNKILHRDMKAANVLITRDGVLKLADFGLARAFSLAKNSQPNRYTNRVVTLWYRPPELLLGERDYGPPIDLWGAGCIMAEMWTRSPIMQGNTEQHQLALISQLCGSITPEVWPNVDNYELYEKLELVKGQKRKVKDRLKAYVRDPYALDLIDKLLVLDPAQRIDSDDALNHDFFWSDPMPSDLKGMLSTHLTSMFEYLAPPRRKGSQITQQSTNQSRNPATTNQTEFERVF
Chain of Cdk9/cyclinT1 (O60563 whole entry partner): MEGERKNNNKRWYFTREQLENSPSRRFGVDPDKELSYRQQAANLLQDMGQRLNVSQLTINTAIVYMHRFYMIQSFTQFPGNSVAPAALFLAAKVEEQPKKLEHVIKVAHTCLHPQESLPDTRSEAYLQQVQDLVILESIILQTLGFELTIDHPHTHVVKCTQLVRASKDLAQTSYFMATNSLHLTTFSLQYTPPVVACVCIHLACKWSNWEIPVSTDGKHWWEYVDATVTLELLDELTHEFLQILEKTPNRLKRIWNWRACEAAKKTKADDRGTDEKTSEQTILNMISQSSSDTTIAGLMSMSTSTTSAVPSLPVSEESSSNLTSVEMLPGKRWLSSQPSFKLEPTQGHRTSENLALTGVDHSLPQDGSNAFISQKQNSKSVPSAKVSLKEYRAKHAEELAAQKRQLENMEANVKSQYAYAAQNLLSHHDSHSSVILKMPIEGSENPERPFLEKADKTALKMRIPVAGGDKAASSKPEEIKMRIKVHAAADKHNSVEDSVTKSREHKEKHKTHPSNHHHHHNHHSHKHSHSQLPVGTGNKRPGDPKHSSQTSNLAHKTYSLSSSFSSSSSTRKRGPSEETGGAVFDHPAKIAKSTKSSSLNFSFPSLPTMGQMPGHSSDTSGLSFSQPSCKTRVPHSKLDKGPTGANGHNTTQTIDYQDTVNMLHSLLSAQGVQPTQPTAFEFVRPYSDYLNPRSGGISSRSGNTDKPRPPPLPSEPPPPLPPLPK

Row | SMILES | IC50
1 | CC(C)(C)OC(=O)N1CCC[C@@H](C(=O)Nc2cc(-c3cccc(NCC4CCOCC4)n3)c(Cl)cn2)C1 [Example 6, (R)-3-{5′-Chloro-6-[(tetrahydro-pyran-4-ylmethyl)-amino]-[2,4′]bipyridinyl-2′-ylcarbamoyl}-piperidine-1-carboxylic acid tert-butyl ester] | 92 nM
2 | O=C(Nc1cc(-c2cccc(NCC3CCOCC3)n2)c(Cl)cn1)[C@H]1CCCNC1 [Example 8, (S)-Piperidine-3-carboxylic acid {5′-chloro-6-[(tetrahydro-pyran-4-ylmethyl)-amino]-[2,4′]bipyridinyl-2′-yl}-amide] | 46 nM
3 | CCN1CCCC(C(=O)Nc2cc(-c3cccc(NCC4CCOCC4)n3)c(Cl)cn2)C1 (stereo not shown) [Example 9, 1-Ethyl-piperidine-3-carboxylic acid {5′-chloro-6-[(tetrahydro-pyran-4-ylmethyl)-amino]-[2,4′]bipyridinyl-2′-yl}-amide] | 144 nM
4 | O=C(Nc1cc(-c2cccc(NCC3CCOCC3)n2)c(Cl)cn1)[C@@H]1CCCN(CCF)C1 [Example 10, (R)-1-(2-Fluoro-ethyl)-piperidine-3-carboxylic acid {5′-chloro-6-[(tetrahydro-pyran-4-ylmethyl)-amino]-[2,4′]bipyridinyl-2′-yl}-amide] | 164 nM
5 | O=C(Nc1cc(-c2cccc(NCC3CCOCC3)n2)c(Cl)cn1)C1CNCCO1 (stereo not shown) [Example 13, Morpholine-2-carboxylic acid {5′-chloro-6-[(tetrahydro-pyran-4-ylmethyl)-amino]-[2,4′]bipyridinyl-2′-yl}-amide] | 16 nM
6 | O=C(Nc1cc(-c2cccc(NCC3CCCOC3)n2)c(Cl)cn1)[C@@H]1CCCNC1 (stereo partly drawn) [Example 18, (R)-Piperidine-3-carboxylic acid {5′-chloro-6-[(tetrahydro-pyran-3-ylmethyl)-amino]-[2,4′]bipyridinyl-2′-yl}-amide] | < 8 nM
7 | O=C(Nc1cc(-c2cccc(NCC3CCCCCC3)n2)c(Cl)cn1)[C@@H]1CCCNC1 [Example 19, (R)-Piperidine-3-carboxylic acid [5′-chloro-6-(cycloheptylmethyl-amino)-[2,4′]bipyridinyl-2′-yl]-amide] | < 8 nM
8 | O=C(Nc1cc(-c2cccc(NCC3CC3)n2)c(Cl)cn1)[C@@H]1CCCNC1 [Example 20, (R)-Piperidine-3-carboxylic acid [5′-chloro-6-(cyclopropylmethyl-amino)-[2,4′]bipyridinyl-2′-yl]-amide] | 44 nM
9 | CNc1cccc(-c2cc(NC(=O)[C@@H]3CCCNC3)ncc2Cl)n1 [Example 21, (R)-Piperidine-3-carboxylic acid (5′-chloro-6-methylamino-[2,4′]bipyridinyl-2′-yl)-amide] | 76 nM
10 | CC(C)CNc1cccc(-c2cc(NC(=O)[C@@H]3CCCNC3)ncc2Cl)n1 [Example 22, (R)-Piperidine-3-carboxylic acid (5′-chloro-6-isobutylamino-[2,4′]bipyridinyl-2′-yl)-amide] | 33 nM
11 | O=C(Nc1cc(-c2cccc(NCC3COCCO3)n2)c(Cl)cn1)[C@@H]1CCCNC1 (stereo partly drawn) [Example 24, (R)-Piperidine-3-carboxylic acid {5′-chloro-6-[([1,4]dioxan-2-ylmethyl)-amino]-[2,4′]bipyridinyl-2′-yl}-amide] | < 8 nM
12 | C[C@@H](O)CNc1cccc(-c2cc(NC(=O)[C@@H]3CCCNC3)ncc2Cl)n1 [Example 29, (R)-Piperidine-3-carboxylic acid [5′-chloro-6-((R)-2-hydroxy-propylamino)-[2,4′]bipyridinyl-2′-yl]-amide] | 26 nM
13 | CC(=O)N1CCC(CNc2cccc(-c3cc(NC(=O)[C@@H]4CCCNC4)ncc3Cl)n2)CC1 [Example 30, (R)-Piperidine-3-carboxylic acid {6-[(1-acetyl-piperidin-4-ylmethyl)-amino]-5′-chloro-[2,4′]bipyridinyl-2′-yl}-amide] | < 8 nM
14 | O=C(Nc1cc(-c2cccc(NC3CCOCC3)n2)c(Cl)cn1)[C@@H]1CCCNC1 [Example 33, (R)-Piperidine-3-carboxylic acid [5′-chloro-6-(tetrahydro-pyran-4-ylamino)-[2,4′]bipyridinyl-2′-yl]-amide] | 76 nM
15 | O=C(Nc1cc(-c2cccc(NCC3CCCCO3)n2)c(Cl)cn1)[C@@H]1CCCNC1 (stereo partly drawn) [Example 34, (R)-Piperidine-3-carboxylic acid {5′-chloro-6-[(tetrahydro-pyran-2-ylmethyl)-amino]-[2,4′]bipyridinyl-2′-yl}-amide] | 10 nM
16 | CN(CC1CCOCC1)c1cccc(-c2cc(NC(=O)[C@@H]3CCCNC3)ncc2Cl)n1 [Example 35, (R)-Piperidine-3-carboxylic acid {5′-chloro-6-[methyl-(tetrahydro-pyran-4-ylmethyl)-amino]-[2,4′]bipyridinyl-2′-yl}-amide] | < 8 nM
17 | CN(C)c1cccc(-c2cc(NC(=O)[C@@H]3CCCNC3)ncc2Cl)n1 [Example 36, (R)-Piperidine-3-carboxylic acid (5′-chloro-6-dimethylamino-[2,4′]bipyridinyl-2′-yl)-amide] | 102 nM
18 | O=C(Nc1cc(-c2cccc(NCC3CCCCC3)n2)c(Cl)cn1)[C@H]1CCCNC1 [Example 38, (S)-Piperidine-3-carboxylic acid [5′-chloro-6-(cyclohexylmethyl-amino)-[2,4′]bipyridinyl-2′-yl]-amide] | 23 nM

The next lines start with the values.

Row | IC50 | SMILES
19 | 62 nM | CC(C)(C)OC(=O)N1CCC[C@H](C(=O)Nc2cc(-c3cccc(NCc4cccc(F)c4)n3)c(Cl)cn2)C1 [Example 5, (S)-3-[5′-Chloro-6-(3-fluoro-benzylamino)-[2,4′]bipyridinyl-2′-ylcarbamoyl]-piperidine-1-carboxylic acid tert-butyl ester]
20 | 14 nM | O=C(Nc1cc(-c2cccc(NCC3CCOCC3)n2)c(Cl)cn1)C1CCNCC1 [Example 7, Piperidine-4-carboxylic acid {5′-chloro-6-[(tetrahydro-pyran-4-ylmethyl)-amino]-[2,4′]bipyridinyl-2′-yl}-amide]
21 | 770 nM | O=C(Nc1cc(-c2cccc(NCC3CCOCC3)n2)c(Cl)cn1)[C@@H]1CCCN(CC(F)(F)F)C1 [Example 11, (R)-1-(2,2,2-Trifluoro-ethyl)-piperidine-3-carboxylic acid {5′-chloro-6-[(tetrahydro-pyran-4-ylmethyl)-amino]-[2,4′]bipyridinyl-2′-yl}-amide]
22 | < 8 nM | O=C(Nc1cc(-c2cccc(NCC3CCS(=O)(=O)CC3)n2)c(Cl)cn1)[C@@H]1CCCNC1 [Example 12, (R)-piperidine-3-carboxylic acid {5′-chloro-6-[(1′,1′-dioxo-hexahydro-1-thiopyran-4-ylmethyl)-amino]-[2,4′]bipyridinyl-2′-yl}-amide]
23 | < 8 nM | O=C(Nc1cc(-c2cccc(NCC3CCOCC3)n2)ccn1)[C@@H]1CCCNC1 [Example 15, (R)-Piperidine-3-carboxylic acid {6-[(tetrahydro-pyran-4-ylmethyl)-amino]-[2,4′]bipyridinyl-2′-yl}-amide]
24 | 855 nM | COCCN1CCC[C@@H](C(=O)Nc2cc(-c3cccc(NCC4CCOCC4)n3)c(Cl)cn2)C1 [Example 16, (R)-1-(2-Methoxy-ethyl)-piperidine-3-carboxylic acid {5′-chloro-6-[(tetrahydro-pyran-4-ylmethyl)-amino]-[2,4′]bipyridinyl-2′-yl}-amide]
25 | < 8 nM | O=C(Nc1cc(-c2cccc(NCC3CCCCC3)n2)c(Cl)cn1)[C@@H]1CCCNC1 [Example 17, (R)-Piperidine-3-carboxylic acid [5′-chloro-6-(cyclohexylmethyl-amino)-[2,4′]bipyridinyl-2′-yl]-amide]
26 | 9 nM | CC(C)CCNc1cccc(-c2cc(NC(=O)[C@@H]3CCCNC3)ncc2Cl)n1 [Example 23, (R)-Piperidine-3-carboxylic acid [5′-chloro-6-(3-methyl-butylamino)-[2,4′]bipyridinyl-2′-yl]-amide]
27 | 47 nM | O=C(Nc1cc(-c2cccc(NC[C@H]3CCCO3)n2)c(Cl)cn1)[C@@H]1CCCNC1 [Example 25, (R)-Piperidine-3-carboxylic acid (5′-chloro-6-{[(R)-1-(tetrahydro-furan-2-yl)methyl]-amino}-[2,4′]bipyridinyl-2′-yl)-amide]
28 | 32 nM | COCCNc1cccc(-c2cc(NC(=O)[C@@H]3CCCNC3)ncc2Cl)n1 [Example 26, (R)-Piperidine-3-carboxylic acid [5′-chloro-6-(2-methoxy-ethylamino)-[2,4′]bipyridinyl-2′-yl]-amide]
29 | 21 nM | O=C(Nc1cc(-c2cccc(NC[C@@H]3CCCO3)n2)c(Cl)cn1)[C@@H]1CCCNC1 [Example 27, (R)-Piperidine-3-carboxylic acid (5′-chloro-6-{[(S)-1-(tetrahydro-furan-2-yl)methyl]-amino}-[2,4′]bipyridinyl-2′-yl)-amide]
30 | 21 nM | COCCCNc1cccc(-c2cc(NC(=O)[C@@H]3CCCNC3)ncc2Cl)n1 [Example 28, (R)-Piperidine-3-carboxylic acid [5′-chloro-6-(3-methoxy-propylamino)-[2,4′]bipyridinyl-2′-yl]-amide]
31 | 46 nM | C[C@H](O)CNc1cccc(-c2cc(NC(=O)[C@@H]3CCCNC3)ncc2Cl)n1 [Example 31, (R)-Piperidine-3-carboxylic acid [5′-chloro-6-((S)-2-hydroxy-propylamino)-[2,4′]bipyridinyl-2′-yl]-amide]
32 | 19 nM | O=C(Nc1cc(-c2cccc(NCCN3CCCC3=O)n2)c(Cl)cn1)[C@@H]1CCCNC1 [Example 32, (R)-Piperidine-3-carboxylic acid {5′-chloro-6-[2-(2-oxo-pyrrolidin-1-yl)-ethylamino]-[2,4′]bipyridinyl-2′-yl}-amide]
33 | 50 nM | CC(=O)NCCNc1cccc(-c2cc(NC(=O)[C@@H]3CCCNC3)ncc2Cl)n1 [Example 37, (R)-Piperidine-3-carboxylic acid [6-(2-acetylamino-ethylamino)-5′-chloro-[2,4′]bipyridinyl-2′-yl]-amide]
34 | < 8 nM | O=C(Nc1cc(-c2cccc(NCc3ccccc3)n2)c(Cl)cn1)[C@@H]1CCCNC1 [Example 39, (R)-Piperidine-3-carboxylic acid (6-benzylamino-5′-chloro-[2,4′]bipyridinyl-2′-yl)-amide]
